From ChEMBL document CHEMBL4219065, “Progress in the Development of Preventative Drugs for Cisplatin-Induced Hearing Loss” (J Med Chem, 2018)

Columns and labels:
Homo sapiens = assay: Protection against cisplatin-induced ototoxicity in human assessed as reduction in hearing loss administered iv 35 mins prior to cisplatin treatment; assay type: functional; parameters: scale not given: the % may be the effect or the level left
[1] = Terminal half life in rat; settings: in vivo

| half-life [1] | SMILES | Activity (Homo sapiens) |
| --- | --- | --- |
| – | NCCCNCCSP(=O)(O)O [AMIFOSTINE] | 43% |
| 34.2 min | [14CH3]SCC[C@@H](N)C(=O)O | – |
